A word on the IC50: it is the concentration needed to halve the response being measured.

In the assay the target is Glutamate NMDA receptor. The assay can be described thus: Binding affinity for N-methyl-D-aspartate glutamate receptor of cerebral cortical synaptic membranes from rats using [3H]MK-801 as radioligand.
`CCCN(CCC)C(=O)/C(=C\C1CCCN1)c1cccc(F)c1` (stereo not given) returned an IC50 of 0.42 µM. This counts as sub-micromolar.
For `CCCCN(CCCC)C(=O)/C(=C\C1CCCN1)c1ccccc1` (stereo not given), the IC50 was 4.2 µM.
With `CCCN(CCC)C(=O)/C(=C\C1CCCN1)c1ccc(OC)cc1` (stereo not given) the figure was 160 µM.
Compound `CCN(CC)C(=O)/C(=C\C1CCCN1)c1ccccc1` (stereo not given) returned an IC50 of 3.6 µM. This IC50 lies about 44-fold lower than the previous one.
In the case of `CCCN(CCC)C(=O)/C(=C\C1CCCN1)c1ccccc1F` (stereo not given) it was 1.7 µM; in that of `CCCN(CC1CC1)C(=O)/C(=C\C1CCCN1)c1ccccc1` (stereo not given), 0.74 µM; in that of `O=C(/C(=C\C1CCCN1)c1ccccc1)N1CCCCCC1` (stereo not given), 16 µM.
Compound `C=C(C)CN(CC)C(=O)/C(=C\C1CCCN1)c1ccccc1` (stereo not given) came in with an IC50 of 0.52 µM.
`CCN(CC)C(=O)[C@@]1(c2ccccc2)C[C@H]1C1CCCN1` (stereo not given in full): the IC50 stood at 1 µM.
Consider `O=C(/C(=C\C1CCCN1)c1ccccc1)N1CCNCC1` (stereo not given), for which the IC50 was > 1000 µM.
In the case of `CCCN(CCC)C(=O)/C(=C\C1CCCN1)c1ccc(C)cc1` (stereo not given) it was > 1000 µM.
`CCCN(CCC)C(=O)/C(=C\C(N)CC)c1ccccc1` (stereo not given) yielded an IC50 of 0.53 µM.
Take `CCCN(CCC)C(=O)/C(=C\C1CCCN1)c1ccccc1` (stereo not given): the IC50 is 0.54 µM.
As to `CC[C@H](N)[C@@H]1C[C@@]1(C(=O)N(CC)CC)c1ccccc1`, the IC50 is 0.2 µM.
`CCCN(CCC)C(=O)/C(=C\C1CCCN1)c1ccc(F)cc1` (stereo not given) yielded an IC50 of 13 µM. Compared with the last compound, the IC50 is about 65-fold higher.

For the origin of these results see ChEMBL document CHEMBL1145916, “A method for designing conformationally restricted analogues based on allylic strain: synthesis of a novel class of noncompetitive NMDA receptor antagonists having the acrylamide structure” (J Med Chem, 2003).
